Experiments:
βAPP = βAPP levels in SK-N-SH cells (conditioned media and cell lysates), western blot; assay type: cell-based, human
Method: SK-N-SH neuroblastoma cells were cultured on 60 mm dishes at a concentration of 3×10^6 cells, and SH-SY-5Y neuroblastoma and U373 astrocytorna cell lines were plated in 100 mm dishes at a concentration of 3×10^5 cells. The cells were allowed to grow in complete medium ([…], 2 mM glutamine in DMEM) for 3 to 4 days until they reached 70% confluence. To start the experiment, spent medium was removed and replaced with fresh medium (SKNSH—4 ml of DMEM+0.5% FBS; U373—5 ml of DMEM+2.5% FBS) containing 0, 5, or 50 μM phenserine. The cells were incubated at 37° C., 5% CO2 for the specific times indicated. Different media and sera were purchased from Life Technologies (Gaithersberg, Md.).
At each time point, the spent medium was collected and stored at −70° C. for later analysis of secretory βAPP levels. The cells were washed twice with PBS, pH 7.4 and incubated on ice for 15 min for lysis with 100 μL of lysis buffer (20 mM HEPES, 2 mM EGTA, 50 mM (β-glycophosphate, 1 mM sodium orthovanadate, 1% Triton X-100, 10% glycerol) containing appropriate protease inhibitors (2 mM PMSF, 100 μg/mL aprotinin, 25 μM leupeptin and 20 μg/mL soybean trypsin inhibitor). Each lysate was microcentrifuged for 15 min at 14 000 rpm. Protein levels of the supernatant were analyzed by the Bradford protein assay (BioRad, Melville, N.Y.).
Fifteen μg of protein from each sample was mixed with the appropriate volume of 5× Laemmli buffer and boiled for 5 min at 100° C. The samples were loaded onto a 10% NuPAGE Bis-Tris gel in 1×NuPAGE MOPS SDS running buffer (NOVEX, San Diego, Calif.) and the proteins separated at 200 V for 45 min. The gels then were transferred onto nitrocellulose at 25 V for 1.5 h. The blots were blocked with 5% non-fat dry milk in 10 mM Tris, pH 8.0 containing 150 mM NaCl for 1 h and washed twice for 15 min in large volumes of TBST (10 mM Tris, pH 8.0, 150 mM NaCl and 0.05% Tween 20). Each blot was probed for 2 h with either 22C11 anti-βAPP-terminal antibody (Boehringer Mannheim, Indianapolis, Ind.), diluted to a concentration of 2.5 μg/mL or anti-activated ERK antibody (Promega, Madison, Wis.), diluted to a concentration of 25 ng/mL. The blots were washed twice for 15 min in TBST and placed in secondary antibody, anti-mouse IgG- or anti-rabbit IgG conjugated to horse radish peroxidase (Sigma, St. Louis, Mo.), for 30 min. Three final TBST washes of 20 min duration each were performed before the samples were detected by chemiluminescence and exposed to film, as per the manufacturer's instructions (Amersham Life Science Inc., Arlington Heights, Ill.). Additionally, all blots also were stained with Ponceau S (Sigma, St. Louis, Mo.) to determine equivalent loading of samples. Densitometric quantification of blots was undertaken by using a […] and NIH-IMAGE (version 4.1).
Western blots of conditioned media (FIG. 4A) and cell lysates (FIG. 4B) were probed; with a N-terminal directed anti-βAPP antibody.
3×10^6 SK-N-SH cells were plated on 60 mm dishes with DMEM containing 10% FBS. After 36 hours, cells were incubated with low serum medium for 1 hour. Thereafter, the medium was replaced with fresh low serum medium (0.5% FBS). […] The cells were incubated with and without phenserine for 16 hours. At the stated time (4, 8 and 16 hrs), 200 μl of medium was transferred from each dish for assessment of extracellular APP levels. At the end of experiments (16 hrs), the cells were lysed and collected for assessment of intracellular APP levels.
15 μL of medium samples and 15 μg of total protein from each lysed samples were loaded onto 10% trys-glycine gels, and the protein was separated at 150 V for 90 min. The gels were transferred onto polyvinylidene difluoride paper and probed with an affinity-purified anti-APP antibody (22C11), which recognizes the ectodomain of APP (residues 66-81). The APP signals were detected by chemiluminescence and exposed to film. The quantitation of the signals was determined by using a CD camera and NIH-IMAGE (version 4.0). […]

SK-N-SH cells = experiment: LDH assay / cell number and viability, SK-N-SH cells; assay type: cell-based, human; conditions: for toxicity by cell number and viability (LDH measurement): SK-N-SH, cymserine and analogs
From the text: Measurement of released lactate dehydrogenase (LDH) in the conditioned medium was undertaken as a marker of cell viability and integrity, as described previously (Lahiri et al., 1997 and 1998).
This was not associated with cellular dysfunction, as determined by measurement of LDH levels versus untreated controls (FIG. 4C).

total Aβ peptide = experiment: total Aβ ELISA in SK-N-SH conditioned medium; assay type: cell-based, human; conditions: for Aβ peptide levels: cymserine and analogs
Method: Total Aβ peptide levels in SH-SY-SY and SK-N-SH cultured samples were assayed by a sensitive ELISA (Suzuki et al., 1994). For total Aβ measurements in conditioned medium, the rabbit polyclonal antibody #3160 (1-40 residues of Aβ) was used as a capture antibody for all species of Aβ peptide (Aβ1-40 and Aβ1-42) while monoclonal antibody 4G8 (17-25 residues of Aβ) was used to detect Aβ peptide levels, and the values were expressed as the mean of six independent assays.
Likewise, (+)-phenserine reduced BAPP protein levels and total Aβ peptide levels at 16 hours (FIG. 5).

cholinesterase = assay type: biochemical
Aβ1-40 = Aβ1-40 levels in cerebral cortex of transgenic mice, ELISA; assay type: in vivo; conditions: formic acid extraction, 3 weeks daily
Method: (§1) Greater reductions could be achieved, but, as previously reported, doses of >5 mg/kg produce cholinergic side effects for the (−)-enantiomer but not for the (+)-enantiomer.
(§2) Samples of cerebral cortex from the transgenic mice then were analyzed for β amyloid peptide (Aβ) levels. Specifically, Aβ1-40 and Aβ1-42 levels, following formic acid extraction, were determined by ELISA assay (Suzuki et al., 1994).

Aβ1-42 = Aβ1-42 levels in cerebral cortex of transgenic mice, ELISA; assay type: in vivo; conditions: formic acid extraction, 3 weeks daily
Method: as §1, §2

secreted APP = experiment: ELISA for secreted APP in SHSY5Y cells; assay type: cell-based, human; conditions: 16 hours
SH-SY-5Y Cells = experiment: MTS toxicity assay in SHSY5Y cells; assay type: cell-based, human

Row | Structure (SMILES) | βAPP protein levels (βAPP; cymserine and analogs (FIG. 7)) | toxicity by cell number and viability (LDH measurement) (SK-N-SH cells) | Aβ peptide levels (total Aβ peptide) | APP Secretion by SH-SY-5Y Cells (secreted APP; Dose 2 uM) | APP Secretion by SH-SY-5Y Cells (secreted APP; Dose 6 uM) | APP Secretion by SH-SY-5Y Cells (secreted APP; Dose 20 uM) | APP Toxicity SH-SY-5Y Cells (MTS assay) (SH-SY-5Y Cells; Dose 2 uM) | APP Toxicity SH-SY-5Y Cells (MTS assay) (SH-SY-5Y Cells; Dose 6 uM) | APP Toxicity SH-SY-5Y Cells (MTS assay) (SH-SY-5Y Cells; Dose 20 uM) | other results
1 | CC(C)c1ccc(NC(=O)Oc2ccc3c(c2)[C@]2(C)CCNC2N3)cc1 (single isomer, unassigned; (-)) [(−)-N^1,N^8-bisnorcymserine] | reduced βAPP protein levels | no toxicity | also reduced | – | – | – | – | – | – | toxicity at higher concentrations (SK-N-SH cells): toxic
2 | CC(C)c1ccc(NC(=O)Oc2ccc3c(c2)[C@@]2(C)CCN(C)[C@H]2N3C)cc1 [(+)-cymserine, (+)-Cymserine] | reduced βAPP protein levels | no toxicity | also reduced | – | – | – | – | – | – | anticholinesterase activity / action (cholinesterase): devoid of it
3 | CC(C)c1ccc(NC(=O)Oc2ccc3c(c2)[C@]2(C)CCN(CCc4ccccc4)[C@@H]2N3C)cc1 [(−)-N^1-phenethylcymserine] | reduced βAPP protein levels | no toxicity | also reduced | – | – | – | – | – | – | toxicity at higher concentrations (SK-N-SH cells): toxic; reduction of Aβ1-40 levels (Aβ1-40): 54%; reduction of Aβ1-42 levels (Aβ1-42): 47%
4 | CC(C)c1ccc(NC(=O)Oc2ccc3c(c2)[C@]2(C)CCN(C)[C@@H]2N3C)cc1 [(−)-cymserine] | reduced βAPP protein levels | no toxicity | also reduced | – | – | – | – | – | – | anticholinesterase activity / action (cholinesterase): possessed anticholinesterase action
5 | CNC(=O)Oc1ccc2c(c1)[C@]1(C)CCN(C)[C@@H]1N2C [(−)-physostigmine, reference compound] | – | – | – | – | – | – | – | – | – | βAPP protein levels (βAPP; 50 μM): no reduction or change; total Aβ peptide levels (total Aβ peptide; 50 μM): no reduction or change
6 | COc1ccc2c(c1)C(O)(c1ccccc1)C(=O)N2C (centres unmarked) [MES 9319] | – | – | – | 108.95 % vehicle control | 114.1 % vehicle control | 112.8 % vehicle control | 99.8 % vehicle control | 101.05 % vehicle control | 102.7 % vehicle control | –
7 | COc1ccc2[nH]cc(CCN)c2c1.Cl [MES 9321] | – | – | – | 97.95 % vehicle control | 98.1 % vehicle control | 100.5 % vehicle control | 99.9 % vehicle control | 101.15 % vehicle control | 99.45 % vehicle control | –
8 | COc1ccc2c(c1)C(C)(c1ccccc1)C(=O)N2C (centres unmarked) [MES 9324] | – | – | – | 110.3 % vehicle control | 95.9 % vehicle control | 99.95 % vehicle control | 102.15 % vehicle control | 100.4 % vehicle control | 98.65 % vehicle control | –
9 | Br.CC1=C(c2ccc(O)cc2)CN2CCC[C@H]2C1.O [MES 9330] | – | – | – | 99.6 % vehicle control | 101.5 % vehicle control | 110.65 % vehicle control | 99.05 % vehicle control | 98.45 % vehicle control | 97.95 % vehicle control | –
10 | Clc1ccc(C2CC3CCC2N3)cn1 (centres unmarked) [MES 9331] | – | – | – | 95.45 % vehicle control | 102.1 % vehicle control | 106.7 % vehicle control | 100.45 % vehicle control | 99.99 % vehicle control | 98.95 % vehicle control | –

— US8691864B2, “Agents useful for reducing amyloid precursor protein and treating dementia and methods of use thereof” (priority 2000, dated 2014)
